For data set [1], the system named is MC28 cells.
Data set [2] has as its system MC28 cells. This is another data set of the same source.
Data set [3] has as its system MC28 cells. The class given is cell-based, rat.

`N=C(N)NCCC[C@H](NC(=O)CN)C(=O)N[C@@H](CCCCN)C(=O)N[C@@H](CCCCN)C(=O)N[C@@H](CCCNC(=N)N)C(=O)N[C@@H](CCCNC(=N)N)C(=O)N[C@@H](CCC(N)=O)C(=O)N[C@@H](CCCNC(=N)N)C(=O)N[C@@H](CCCNC(=N)N)C(=O)N[C@@H](CCCNC(=N)N)C(=O)NCC(=O)N[C@@H](Cc1ccc(O)cc1)C(=O)N[C@@H](CCCCN)C(=O)N[C@@H](CSC1CC(=O)N(CCC(=O)Nc2ccc(-c3c4nc(c(-c5ccccc5)c5ccc([nH]5)c(-c5ccccc5)c5nc(c(-c6ccccc6)c6ccc3[nH]6)C=C5)C=C4)cc2)C1=O)C(N)=O` (some centres unmarked) [Compound 20]: the “LD50 PDT” value with MC28 cells [1] (18 h) turned out to be 94 ± 6 nM. For the same molecule, the LD50 dark result in the data set on MC28 cells [1] (24 h) is reported as “≫1 μM”. In the data set with MC28 cells [2], the cellular uptake result was “efficient uptake” and the subcellular localisation entry is reported as “Endolysosomal localisation”.
Consider saporin, for which the “reduction in viability using saporin alone” value in the data set on MC28 cells [3] was “approximately 10%”.

(Values after PMC5166568, “Flexible synthesis of cationic peptide–porphyrin derivatives for light-triggered drug delivery and photodynamic therapy” (Organic & Biomolecular Chemistry, 2016).)
